Like-named read-outs stand apart in the source and are kept apart here.
Test system: BT474 breast cancer cells
Assay: BT474 Four (4) Day Cell Viability Assay
Assay type: cell-based
Details: Homo sapiens, BT-474, 96 h, BT474, 4 days, read-out: cellular viability; for viability at 7.5 µM: 32661 7.5 μM; for viability at 10 µM: 32661 10 μM
Experimental: BT474 breast cancer cells that are Estrogen Receptor Positive and HER2+ were grown in 5% cFBS. 5,000 cells were seeded into each well of a 96-well plate and treated with escalating doses of lapatinib, fulvestrant, and 32661.

[1] = fulvestrant 0.0 nM, lapatinib 0.0 nM
[2] = fulvestrant 0.0 nM, lapatinib 6.9 nM
[3] = fulvestrant 0.0 nM, lapatinib 20.6 nM
[4] = fulvestrant 0.0 nM, lapatinib 61.7 nM
[5] = fulvestrant 0.0 nM, lapatinib 185.2 nM
[6] = fulvestrant 0.0 nM, lapatinib 555.6 nM
[7] = fulvestrant 0.0 nM, lapatinib 1666.7 nM
[8] = fulvestrant 0.0 nM, lapatinib 3333.0 nM
[9] = fulvestrant 6.9 nM, lapatinib 0.0 nM
[10] = fulvestrant 6.9 nM, lapatinib 6.9 nM
[11] = fulvestrant 6.9 nM, lapatinib 20.6 nM
[12] = fulvestrant 6.9 nM, lapatinib 61.7 nM
[13] = fulvestrant 6.9 nM, lapatinib 185.2 nM
[14] = fulvestrant 6.9 nM, lapatinib 555.6 nM
[15] = fulvestrant 6.9 nM, lapatinib 1666.7 nM
[16] = fulvestrant 6.9 nM, lapatinib 3333.0 nM
[17] = fulvestrant 20.6 nM, lapatinib 0.0 nM
[18] = fulvestrant 20.6 nM, lapatinib 6.9 nM
[19] = fulvestrant 20.6 nM, lapatinib 20.6 nM
[20] = fulvestrant 20.6 nM, lapatinib 61.7 nM
[21] = fulvestrant 20.6 nM, lapatinib 185.2 nM
[22] = fulvestrant 20.6 nM, lapatinib 555.6 nM
[23] = fulvestrant 20.6 nM, lapatinib 1666.7 nM
[24] = fulvestrant 20.6 nM, lapatinib 3333.0 nM
[25] = fulvestrant 61.7 nM, lapatinib 0.0 nM
[26] = fulvestrant 61.7 nM, lapatinib 6.9 nM
[27] = fulvestrant 61.7 nM, lapatinib 20.6 nM
[28] = fulvestrant 61.7 nM, lapatinib 61.7 nM
[29] = fulvestrant 61.7 nM, lapatinib 185.2 nM
[30] = fulvestrant 61.7 nM, lapatinib 555.6 nM
[31] = fulvestrant 61.7 nM, lapatinib 1666.7 nM
[32] = fulvestrant 61.7 nM, lapatinib 3333.0 nM
[33] = fulvestrant 185.2 nM, lapatinib 0.0 nM
[34] = fulvestrant 185.2 nM, lapatinib 6.9 nM
[35] = fulvestrant 185.2 nM, lapatinib 20.6 nM
[36] = fulvestrant 185.2 nM, lapatinib 61.7 nM
[37] = fulvestrant 185.2 nM, lapatinib 185.2 nM
[38] = fulvestrant 185.2 nM, lapatinib 555.6 nM
[39] = fulvestrant 185.2 nM, lapatinib 1666.7 nM
[40] = fulvestrant 185.2 nM, lapatinib 3333.0 nM
[41] = fulvestrant 555.6 nM, lapatinib 0.0 nM
[42] = fulvestrant 555.6 nM, lapatinib 6.9 nM
[43] = fulvestrant 555.6 nM, lapatinib 20.6 nM
[44] = fulvestrant 555.6 nM, lapatinib 61.7 nM
[45] = fulvestrant 555.6 nM, lapatinib 185.2 nM
[46] = fulvestrant 555.6 nM, lapatinib 555.6 nM
[47] = fulvestrant 555.6 nM, lapatinib 1666.7 nM
[48] = fulvestrant 555.6 nM, lapatinib 3333.0 nM
[49] = fulvestrant 1666.7 nM, lapatinib 0.0 nM
[50] = fulvestrant 1666.7 nM, lapatinib 6.9 nM
[51] = fulvestrant 1666.7 nM, lapatinib 20.6 nM
[52] = fulvestrant 1666.7 nM, lapatinib 61.7 nM
[53] = fulvestrant 1666.7 nM, lapatinib 185.2 nM
[54] = fulvestrant 1666.7 nM, lapatinib 555.6 nM
[55] = fulvestrant 1666.7 nM, lapatinib 1666.7 nM
[56] = fulvestrant 1666.7 nM, lapatinib 3333.0 nM
[57] = fulvestrant 3333.0 nM, lapatinib 0.0 nM
[58] = fulvestrant 3333.0 nM, lapatinib 6.9 nM
[59] = fulvestrant 3333.0 nM, lapatinib 20.6 nM
[60] = fulvestrant 3333.0 nM, lapatinib 61.7 nM
[61] = fulvestrant 3333.0 nM, lapatinib 185.2 nM
[62] = fulvestrant 3333.0 nM, lapatinib 555.6 nM
[63] = fulvestrant 3333.0 nM, lapatinib 1666.7 nM
[64] = fulvestrant 3333.0 nM, lapatinib 3333.0 nM

FC(F)(F)c1ccc2c(SCCCCCCn3cnc(CN4CCOCC4)c3)ccnc2c1 [Compound 0032661, 4-[[1-[6-[[7-(trifluoromethyl)-4-quinolyl]sulfanyl]hexyl]imidazol-4-yl]methyl]morpholine]
viability at 5 µM (32661 5 μM, fulvestrant 3333.0 nM, lapatinib 3333.0 nM): 1%
viability at 7.5 µM [1]: 84%
viability at 7.5 µM [2]: 76%
viability at 7.5 µM [3]: 74%
viability at 7.5 µM [4]: 65%
viability at 7.5 µM [5]: 50%
viability at 7.5 µM [6]: 30%
viability at 7.5 µM [7]: 14%
viability at 7.5 µM [8]: 12%
viability at 7.5 µM [9]: 81%
viability at 7.5 µM [10]: 72%
viability at 7.5 µM [11]: 71%
viability at 7.5 µM [12]: 64%
viability at 7.5 µM [13]: 52%
viability at 7.5 µM [14]: 27%
viability at 7.5 µM [15]: 12%
viability at 7.5 µM [16]: 9%
viability at 7.5 µM [17]: 75%
viability at 7.5 µM [18]: 73%
viability at 7.5 µM [19]: 67%
viability at 7.5 µM [20]: 62%
viability at 7.5 µM [21]: 50%
viability at 7.5 µM [22]: 23%
viability at 7.5 µM [23]: 12%
viability at 7.5 µM [24]: 4%
viability at 7.5 µM [25]: 76%
viability at 7.5 µM [26]: 66%
viability at 7.5 µM [27]: 61%
viability at 7.5 µM [28]: 58%
viability at 7.5 µM [29]: 52%
viability at 7.5 µM [30]: 24%
viability at 7.5 µM [31]: 12%
viability at 7.5 µM [32]: 4%
viability at 7.5 µM [33]: 74%
viability at 7.5 µM [34]: 64%
viability at 7.5 µM [35]: 61%
viability at 7.5 µM [36]: 54%
viability at 7.5 µM [37]: 48%
viability at 7.5 µM [38]: 24%
viability at 7.5 µM [39]: 10%
viability at 7.5 µM [40]: 5%
viability at 7.5 µM [41]: 76%
viability at 7.5 µM [42]: 59%
viability at 7.5 µM [43]: 52%
viability at 7.5 µM [44]: 45%
viability at 7.5 µM [45]: 38%
viability at 7.5 µM [46]: 19%
viability at 7.5 µM [47]: 3%
viability at 7.5 µM [48]: 1%
viability at 7.5 µM [49]: 69%
viability at 7.5 µM [50]: 35%
viability at 7.5 µM [51]: 28%
viability at 7.5 µM [52]: 25%
viability at 7.5 µM [53]: 21%
viability at 7.5 µM [54]: 12%
viability at 7.5 µM [55]: 2%
viability at 7.5 µM [56]: 0%
viability at 7.5 µM [57]: 49%
viability at 7.5 µM [58]: 16%
viability at 7.5 µM [59]: 13%
viability at 7.5 µM [60]: 11%
viability at 7.5 µM [61]: 7%
viability at 7.5 µM [62]: 2%
viability at 7.5 µM [63]: 3%
viability at 7.5 µM [64]: 1%
viability at 10 µM [1]: 90%
viability at 10 µM [2]: 42%
viability at 10 µM [3]: 38%
viability at 10 µM [4]: 35%
viability at 10 µM [5]: 28%
viability at 10 µM [6]: 28%
viability at 10 µM [7]: 23%
viability at 10 µM [8]: 5%
viability at 10 µM [9]: 90%
viability at 10 µM [10]: 38%
viability at 10 µM [11]: 35%
viability at 10 µM [12]: 33%
viability at 10 µM [13]: 27%
viability at 10 µM [14]: 24%
viability at 10 µM [15]: 20%
viability at 10 µM [16]: 3%
viability at 10 µM [17]: 89%
viability at 10 µM [18]: 36%
viability at 10 µM [19]: 36%
viability at 10 µM [20]: 33%
viability at 10 µM [21]: 28%
viability at 10 µM [22]: 23%
viability at 10 µM [23]: 20%
viability at 10 µM [24]: 3%
viability at 10 µM [25]: 86%
viability at 10 µM [26]: 37%
viability at 10 µM [27]: 35%
viability at 10 µM [28]: 33%
viability at 10 µM [29]: 27%
viability at 10 µM [30]: 23%
viability at 10 µM [31]: 20%
viability at 10 µM [32]: 2%
viability at 10 µM [33]: 86%
viability at 10 µM [34]: 33%
viability at 10 µM [35]: 33%
viability at 10 µM [36]: 31%
viability at 10 µM [37]: 24%
viability at 10 µM [38]: 23%
viability at 10 µM [39]: 18%
viability at 10 µM [40]: 1%
viability at 10 µM [41]: 81%
viability at 10 µM [42]: 31%
viability at 10 µM [43]: 29%
viability at 10 µM [44]: 29%
viability at 10 µM [45]: 24%
viability at 10 µM [46]: 23%
viability at 10 µM [47]: 18%
viability at 10 µM [48]: 1%
viability at 10 µM [49]: 78%
viability at 10 µM [50]: 16%
viability at 10 µM [51]: 16%
viability at 10 µM [52]: 15%
viability at 10 µM [53]: 16%
viability at 10 µM [54]: 15%
viability at 10 µM [55]: 7%
viability at 10 µM [56]: 0%
viability at 10 µM [57]: 55%
viability at 10 µM [58]: 3%
viability at 10 µM [59]: 3%
viability at 10 µM [60]: 6%
viability at 10 µM [61]: 2%
viability at 10 µM [62]: 2%
viability at 10 µM [63]: 1%
viability at 10 µM [64]: 0%
